Consider one molecule from US7087634B2, “Cyclic AMP-specific phosphodiesterase inhibitors” (ICOS Corporation, priority 1999, dated 2006).

What all share (format): biochemical
In assay [1] the target is T1, PDE7 (Homo sapiens, UniProt Q13946).
T1 construct: made in house; host or cells: Saccharomyces cerevisiae BJ2-54
The assay is described as follows: Inhibition of PDE7. As for the experimental part: (§1) Recombinant production of human PDE1B, PDE2, PDE4A, PDE4B, PDE4C, PDE4D, PDE5, and PDE7 was carried out similarly to that described in Example 7 of U.S. Pat. No. 5,702,936, incorporated herein by reference, except that the yeast transformation vector employed, which is derived from the basic ADH2 plasmid described in Price et al., Methods in Enzymology, 185, pp. 308–318 (1990), incorporated yeast ADH2 promoter and terminator sequences and the Saccharomyces cerevisiae host was the protease-deficient strain BJ2–54 deposited on Aug. 31, 1998 with the American Type Culture Collection, Manassas, Va., under accession number ATCC 74465. Transformed host cells were grown in 2×SC-leu medium, pH 6.2, with trace metals, and vitamins. After 24 hours, YEP medium-containing glycerol was added to a final concentration of 2×YET/3% glycerol. […]
(§2) Phosphodiesterase activity of the preparations was determined as follows. […] The [32P]5′-AMP or [32P]5′-GMP then was quantitatively converted to free [32P]phosphate and unlabeled adenosine or guanosine by the action of snake venom 5′-nucleotidase. […] PDE enzyme was present in quantities that yield <30% total hydrolysis of substrate (linear assay conditions). […] After centrifugation (750×g for 3 minutes) to sediment the charcoal, a sample of the supernatant was taken for radioactivity determination in a scintillation counter and the PDE activity was calculated. […]

Assay [2] deals with T2, PDE1B (Homo sapiens, UniProt Q01064).
T2 construct: made in house; host or cells: Saccharomyces cerevisiae BJ2-54
The assay is described as follows: Inhibition of PDE1B.

Assay [3] addresses T3, PDE2 (Homo sapiens, UniProt O00408).
T3 construct: made in house; host or cells: Saccharomyces cerevisiae strain YI34
The assay is described as follows: Inhibition of PDE2. How it is done: as §1, §2

The target in assay [4] is T4, PDE1C (Homo sapiens, UniProt Q14123).
T4 construct: Plasmid Hcam3aBB contained the complete open reading frame of PDE1C3; made in house; host or cells: Sf9 (baculovirus)
Kind of assay: Inhibition of PDE1C.

Assay [5] deals with T5, PDE1A (Homo sapiens, UniProt P54750).
T5 construct: Plasmid pBB-PDE1A3/6 contained the complete open reading frame of PDE1A3; made in house; host or cells: Sf9 (baculovirus)
The assay is described as follows: Inhibition of PDE1A.

T3 sequence (O00408 whole entry): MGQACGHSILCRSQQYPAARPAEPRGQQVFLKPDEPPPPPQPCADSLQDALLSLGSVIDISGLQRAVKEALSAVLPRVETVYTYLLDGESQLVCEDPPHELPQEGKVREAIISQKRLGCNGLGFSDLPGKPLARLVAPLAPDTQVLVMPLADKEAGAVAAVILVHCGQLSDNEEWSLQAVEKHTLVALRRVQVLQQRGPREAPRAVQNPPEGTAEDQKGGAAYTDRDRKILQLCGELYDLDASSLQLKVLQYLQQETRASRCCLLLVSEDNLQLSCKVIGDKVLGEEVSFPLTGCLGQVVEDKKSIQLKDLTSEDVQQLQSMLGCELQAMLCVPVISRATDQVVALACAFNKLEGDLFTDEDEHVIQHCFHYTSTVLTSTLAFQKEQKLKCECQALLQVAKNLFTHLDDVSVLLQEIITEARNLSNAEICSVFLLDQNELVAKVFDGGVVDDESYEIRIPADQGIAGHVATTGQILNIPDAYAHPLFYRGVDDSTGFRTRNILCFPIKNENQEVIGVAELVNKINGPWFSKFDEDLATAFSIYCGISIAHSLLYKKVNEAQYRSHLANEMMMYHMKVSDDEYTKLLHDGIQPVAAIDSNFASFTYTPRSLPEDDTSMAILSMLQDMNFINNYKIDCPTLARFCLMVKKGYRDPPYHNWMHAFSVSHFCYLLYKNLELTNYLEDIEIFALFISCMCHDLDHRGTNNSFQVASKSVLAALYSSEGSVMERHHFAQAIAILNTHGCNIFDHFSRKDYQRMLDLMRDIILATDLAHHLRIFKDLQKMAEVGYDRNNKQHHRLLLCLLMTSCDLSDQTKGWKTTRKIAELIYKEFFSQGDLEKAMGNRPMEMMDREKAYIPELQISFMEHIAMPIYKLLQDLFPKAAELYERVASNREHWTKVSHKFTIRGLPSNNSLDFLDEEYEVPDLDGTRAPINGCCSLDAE
T1 sequence (Q13946 whole entry): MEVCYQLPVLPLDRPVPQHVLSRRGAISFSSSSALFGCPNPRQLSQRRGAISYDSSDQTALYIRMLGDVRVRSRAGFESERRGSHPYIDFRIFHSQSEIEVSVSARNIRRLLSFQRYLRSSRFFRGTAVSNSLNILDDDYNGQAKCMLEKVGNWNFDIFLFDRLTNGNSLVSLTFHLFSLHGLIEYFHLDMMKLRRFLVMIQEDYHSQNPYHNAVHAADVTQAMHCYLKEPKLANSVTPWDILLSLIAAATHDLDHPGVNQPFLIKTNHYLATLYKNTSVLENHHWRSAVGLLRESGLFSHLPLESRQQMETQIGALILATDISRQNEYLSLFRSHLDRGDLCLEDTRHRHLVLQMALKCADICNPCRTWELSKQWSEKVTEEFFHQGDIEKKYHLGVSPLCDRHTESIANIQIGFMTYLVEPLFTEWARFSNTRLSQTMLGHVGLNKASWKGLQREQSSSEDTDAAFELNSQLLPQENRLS

A word on the IC50: it is the midpoint of a concentration-inhibition curve. A high value points to a need for much substance. Regarding `CCOC(=O)c1c(C)nn(-c2cccc([N+](=O)[O-])c2)c1C` [Example 2, 3,5-dimethyl-1-(3-nitrophenyl)-1H-pyrazole-4-carboxylic acid ethyl ester], the IC50 in assay [1] came to 39 µM; in assay [2] it was 25.7 µM; in assay [3], 21.8 µM; in assay [4], 30.2 µM; in assay [5] it was 25.1 µM.
